Literature values as cited in patent publication US7196180B2, “Functionalized derivatives of hyaluronic acid, formation of hydrogels in situ using same, and methods for making and using same” (Orthogene LLC, priority 1998, dated 2007).

- pKa: > 9
Structure (SMILES): NCCCCN [putrescine]
